Experimental data: patent publication US20230130102A1, “Na/K-ATPase LIGANDS AND USE THEREOF FOR TREATMENT OF CANCER” (Marshall University Research Corporation, priority 2019, published 2023)
Entries after “also recorded” stand apart in the source; their conditions may differ.

Columns and labels:
PC3 cells = test: 3D culture spheroid invasion and growth, PC3; type: cell-based, human
Description: (§1) 3D culture-spheroid invasion assay. Cells were trypsinized gently (0.05% Trypsin-EDTA) and diluted at 1000 cells in 20 μl of full serum media for DU145 and C4-2 derived sub-clones or 500 cells in 20 ul for PC3 cells and allowed to form spheroids using hanging drop technique for 3 days, as described previously. Generated spheroids were then embedded into 3D matrix (not yet solidified at the time of experiment), as described in the previous section, on top of a 1% solidified agarose coating in 48 well plates. Spheroids were monitored from day 1 to different time points and images were taken using a phase contrast microscope fitted with camera, at same settings. Spheroid growth or invasion area was quantified using ImageJ software from NIH. The following formulas were used for quantitation of spheroids:
(§2) Spheroid invasion=(Invasion area/Spheroid area)*100
(§3) Spheroid growth=(Spheroid area at Day 3 or 7-Spheroid area at 16 hours)/Spheroid area at 16 hours
(§4) For drug treatment, compound was diluted into media, from stock solution. For MMP secretion, conditioned media for 3 days were collected from top of matrix and assessed for MMP secretion by Western blot using Matrix Remodeling Antibody Sampler kit from Cell Signaling Technology (Cat #73959).

[1] = system: clone 2 spheroids (DU145 derived); test: 3D culture spheroid invasion assay, subclone 2; type: cell-based, human
Description: as §1, §2, §3, §4

DU145 derived subclones = test: Western blot / immunostaining of EMT markers, Src/FAK activation and proliferation markers in DU145 derived subclones; type: cell-based, human; details: for expression of PCNA: 72 hours
Description: (§5) Western blot, Immunoprecipitation and Immunostaining. Cells were grown to 100% confluency and Western blot were performed as described before. Images were quantified with ImageJ software from NIH. Immunoprecipitation studies were performed as described before. α1 NKA immunostaining was performed by growing cells on sterilized coverslips in 6 well tissue culture plates and permeabilization/fixation with ice-cold methanol followed by blocking with 5% horse serum and 0.1% Triton X-100 in 1× Phosphate buffered saline (PBS) for 30 minutes. Coverslips were then stained with an anti-α1 NKA antibody (Millipore, Cat #05-369) at 1:100 dilution in 1% BSA (Bovine Serum Albumin) containing 1×PBS solution for overnight. Next day after three washes, coverslips were stained with Alexa Fluor 488 conjugated anti-mouse secondary antibody (Thermo-Fisher) for 1 hour, washed extensively and then imaged using a fluorescent microscope with GFP filter or confocal microscope (LEICA-DMIRE2). E-cadherin and occludin immunostaining was performed in a similar manner. Phospho-Src, phospho ERK1/2 immunostaining were performed as described before and images were taken with a LEICA DMIRE2 confocal microscope.
Next, it was tested whether MB5 as an inverse agonist of NKA receptor function could reverse EMT and stop invasion of PCa cells by rescuing α1 NKA expression in PCa. Subclone 5 and 2 cells were exposed to a long term treatment (0, 24, 48 and 72 hours) with 100 nM MB5.

[2] = system: subclone 4 and 2 xenograft; test: tumor xenograft of aggressive subclones 4 and 2 in NOD/SCID mice; type: in vivo, mouse
Description: Mice studies. Animal protocols were approved by an Institutional Animal Care and Use Committee (IACUC) according to NIH guidelines. Tumor xenografts were established by subcutaneous injection of 5×10^6 cancer cells into the left and right flanks of 10-week-old male NOD/SCID mice (Charles River). Tumor length (L) and width (W) were measured with calipers weekly and tumor volume was estimated as V=(L×W^2)/2. After the tumor volumes reached approximately 100 mm^3, mice were sacrificed and tumors were harvested. Half of the tumors were used for protein extraction and the other half were digested with collagenase I solution (SIGMA) to isolate cancer cells.
For MB5 treatment, after tumor volume reached approximately 100 mm^3, mice were injected peritoneally with DMSO or MB5 at 20 mg/kg or 10 mg/kg daily and further monitored for tumor growth weekly. At the end of treatment period (about 2-3 weeks), tumors were harvested and tumor lysates were analyzed for protein expression by Western blot.
The therapeutic potential of MB5 in a tumor xenograft model was first tested by injecting DU145 or corresponding α1 knockdown cells (KD) into the right or left flank of 10-week-old NOD/SCID mice. The tumor growth was monitored twice weekly. […] Next, it was determined whether MB5 could decrease tumor growth of highly aggressive subclones derived from DU145. […]

PY17 cells = test: basal ERK phosphorylation in PY17 cells; type: cell-based, pig
Description: as §5, with “microscope. […]” for “microscope.”

[3] = target: T1, α1 NKA/Src receptor complex (Sus scrofa, UniProt P05024); test: ouabain-induced Src/ERK activation in LLC-PK1 cells (immunostaining, Western blot); type: cell-based, pig
T1 construct: endogenous in cells; host or cells: LLC-PK1
Description: as §5
Characterization of MB5 activity on the NKA receptor function known as the NKA/Src binary receptor mechanism was conducted in a pig kidney epithelial cells (LLC-PK1)-based platform using immunostaining and Western blot analyses. […] The change of NKA conformation that occurs upon binding of agonists such as ouabain, results in the release and activation of the Src kinase domain from the “Naktide” site of NKA CD3, while the other interaction (constitutive) persists between NKA CD2 and the SH2 domain of Src. […] In LLC-PK1-derived cells with low NKA receptor constitutive activity due to substantial reduction (over 80%) of α1 NKA expression by siRNA (PY17 cells), increased basal Src and ERK activity is observed due to the abnormally high amount of Src kinase that remains in an active conformation. […]

[4] = Western blot, 100 nM, up to 72 hours

O=c1c2cccc(O)c2oc2c(O)c(O)ccc12 [MB5]
inhibition of spheroid size (PC3 cells; PC3, 0.1 μM): about 25%
inhibition of spheroid size (PC3 cells; PC3, 1 μM): ~50%
spheroid size / growth (PC3 cells; PC3 spheroids): reduced spheroid invasion and growth; also recorded: reduced spheroid size in a concentration-dependent manner
spheroid invasion (PC3 cells; PC3 spheroids, day 7): reduced spheroid invasion; also recorded: suppressed spheroid invasion; also recorded: reduced both invasion
spheroid invasion ([1]; clone 2 spheroids, 3D culture): abolished the invasion; also recorded: suppressed spheroid invasion by subclone 2 cells in a dose-dependent manner; also recorded: significantly reduced invasion of clone 2 spheroids in a dose-dependent manner
spheroid size ([1]; subclone 2 spheroids, 72 hours): significantly reduced spheroid size
Src, FAK activation and Myc expression (DU145 derived subclones; 100 nM, subclones 5 and 2): significant decrease
expression of mesenchymal markers (SNAIL, ZEB1) (DU145 derived subclones; [4]): downregulating; also recorded: decreased expression of mesenchymal markers
α1 NKA and E-cadherin expression (DU145 derived subclones; [4]): increasing; also recorded: significant time-dependent increase; also recorded: increased α1 NKA and E-cadherin expression
expression of PCNA (DU145 derived subclones; subclone 2, 100 nM): significantly reduced
expression of PCNA (DU145 derived subclones; subclone 5, 100 nM): abolished
tumor growth ([2]; 10 mg/kg, subclones 4 and 2): significantly reduced tumor growth from both cell types; also recorded: significantly reduced xenografted tumor growth
α1 NKA and E-cadherin expression in tumor lysates ([2]; subclone 2 tumor lysates, Western blot): increasing α1 NKA and E-cadherin expression
basal ERK phosphorylation (PY17 cells): inhibited ERK phosphorylation in a dose-dependent manner
ERK activation / NKA receptor function by the compound alone ([3]; baseline): did not activate NKA receptor function under baseline condition; also recorded: did not activate ERK
inhibition of ouabain-induced ERK (and Src) activation ([3]; pretreatment before ouabain): abolished ouabain-induced ERK activation; also recorded: better efficacy to inhibit ouabain-induced ERK activation than MB7; also recorded: dose-dependently inhibited Src and ERK activation; also recorded: significantly decreased ouabain-induced ERK signal
